Laboratory results taken from ChEMBL document CHEMBL1949508, “The selective cytotoxic activity in breast cancer cells by an anthranilic alcohol-derived acyclic 5-fluorouracil O,N-acetal is mediated by endoplasmic reticulum stress-induced apoptosis” (Eur J Med Chem, 2012).

Legend:
[1] = tested on: MCF7; assay: Antiproliferative activity against human MCF7 cells after 3 days by SRB assay; format: functional, cell-based; settings: MCF7, 72 h
[2] = tested on: MCF-10A; assay: Cytotoxicity against human MCF10A cells after 3 days by SRB assay; format: cell-based; settings: 72 h
[3] = tested on: MCF7; assay: Antiproliferative activity against human MCF7 cells assessed as cell viability at 1.09 uM after […] by SRB assay (reference value: 96.35 +/- 1.32%); format: functional; settings: read-out: Activity
[4] = Antiproliferative activity against human MCF10A cells assessed as viable cells at 37.67 uM after […] by SRB assay (reference value: 98.46 +/- 3.2%); format: cell-based, MCF-10A; settings: read-out: Activity
[5] = tested on: MCF7; assay: Induction of apoptosis in human MCF7 cells assessed as apoptotic cells at 1.09 uM after 48 hrs by annexinV-FITC/PI-based flow cytometry relative to control; format: functional
[6] = tested on: MCF-10A; assay: Induction of apoptosis in human MCF10A cells assessed as apoptotic cells at 37.67 uM after 48 hrs by annexinV-FITC/PI-based flow cytometry relative to control; format: cell-based
[7] = tested on: MCF7; assay: Induction of apoptosis in human MCF7 cells assessed as early apoptotic cells at 1.09 uM after 48 hrs by annexinV-FITC/PI-based flow cytometry (reference value: 3.27 +/- 0.67%); format: functional
[8] = tested on: MCF-10A; assay: Induction of apoptosis in human MCF10A cells assessed as early apoptotic cells at 37.67 uM after 48 hrs by annexinV-FITC/PI-based flow cytometry (reference value: 0.73 +/- 0.23%); format: cell-based
[9] = tested on: MCF7; assay: Induction of apoptosis in human MCF7 cells assessed as late apoptotic cells at 1.09 uM after 48 hrs by annexinV-FITC/PI-based flow cytometry (reference value: 0.11 +/- 0.02%); format: functional
[10] = tested on: MCF-10A; assay: Induction of apoptosis in human MCF10A cells assessed as late apoptotic cells at 37.67 uM after 48 hrs by annexinV-FITC/PI-based flow cytometry (reference value: 0.21 +/- 0.1%); format: cell-based
[11] = tested on: MCF7; assay: Induction of necrosis in human MCF7 cells assessed as necrotic cells at 1.09 uM after 48 hrs by annexinV-FITC/PI-based flow cytometry (reference value: 0.27 +/- 0.01%); format: functional
[12] = tested on: MCF-10A; assay: Induction of necrosis in human MCF10A cells assessed as necrotic cells at 37.67 uM after 48 hrs by annexinV-FITC/PI-based flow cytometry (reference value: 0.6 +/- 0.13%); format: cell-based
[13] = tested on: MCF7; assay: Upregulation of BBC3 gene in human MCF7 cells at 1.09 uM after 48 hrs by microarray hybridization relative to control; format: functional
[14] = tested on: MCF7; assay: Upregulation of MTL5 gene in human MCF7 cells at 1.09 uM after 48 hrs by microarray hybridization relative to control; format: functional
[15] = tested on: MCF7; assay: Upregulation of BMF gene in human MCF7 cells at 1.09 uM after 48 hrs by microarray hybridization relative to control; format: functional
[16] = tested on: MCF7; assay: Upregulation of BNIP3L gene in human MCF7 cells at 1.09 uM after 48 hrs by microarray hybridization relative to control; format: functional
[17] = tested on: MCF7; assay: Upregulation of BNIP3 gene in human MCF7 cells at 1.09 uM after 48 hrs by microarray hybridization relative to control; format: functional
[18] = tested on: MCF7; assay: Upregulation of GADD45A gene in human MCF7 cells at 1.09 uM after 48 hrs by microarray hybridization relative to control; format: functional
[19] = tested on: MCF7; assay: Upregulation of CARD14 gene in human MCF7 cells at 1.09 uM after 48 hrs by microarray hybridization relative to control; format: functional
[20] = tested on: MCF7; assay: Upregulation of GADD45B gene in human MCF7 cells at 1.09 uM after 48 hrs by microarray hybridization relative to control; format: functional
[21] = tested on: MCF7; assay: Upregulation of DNASE1 gene in human MCF7 cells at 1.09 uM after 48 hrs by microarray hybridization relative to control; format: functional
[22] = tested on: MCF7; assay: Upregulation of NOXA gene in human MCF7 cells at 1.09 uM after 48 hrs by microarray hybridization relative to control; format: functional
[23] = tested on: MCF7; assay: Downregulation of UNC5C gene in human MCF7 cells at 1.09 uM after 48 hrs by microarray hybridization relative to control; format: functional
[24] = tested on: MCF7; assay: Downregulation of CARD9 gene in human MCF7 cells at 1.09 uM after 48 hrs by microarray hybridization relative to control; format: functional
[25] = tested on: MCF7; assay: Downregulation of AVEN gene in human MCF7 cells at 1.09 uM after 48 hrs by microarray hybridization relative to control; format: functional
[26] = tested on: MCF7; assay: Downregulation of BCL2 gene in human MCF7 cells at 1.09 uM after 48 hrs by microarray hybridization relative to control; format: functional
[27] = tested on: MCF7; assay: Downregulation of BAG2 gene in human MCF7 cells at 1.09 uM after 48 hrs by microarray hybridization relative to control; format: functional
[28] = tested on: MCF7; assay: Downregulation of CD14 gene in human MCF7 cells at 1.09 uM after 48 hrs by microarray hybridization relative to control; format: functional
[29] = tested on: MCF7; assay: Downregulation of E2F1 gene in human MCF7 cells at 1.09 uM after 48 hrs by microarray hybridization relative to control; format: functional
[30] = tested on: MCF7; assay: Downregulation of […] gene in human MCF7 cells at 1.09 uM after 48 hrs by microarray hybridization relative to control; format: functional
[31] = tested on: MCF7; assay: Downregulation of TP5313 gene in human MCF7 cells at 1.09 uM after 48 hrs by microarray hybridization relative to control; format: functional

## COC(CN(c1ccccc1CO)S(=O)(=O)c1ccccc1N)n1cc(F)c(=O)[nH]c1=O (racemic)
[1]
  IC50: 1.09 µM
[2]
  IC50: 37.7 µM
[3]
  viability at 1.09 µM: 6.35%
[4]
  viability at 37.67 µM: 30.9%
[5]
  Activity: 90.73%
[6]
  Activity: 19.86%
[7]
  Activity: 13.73%
[8]
  Activity: 2.57%
[9]
  Activity: 77.4%
[10]
  Activity: 17.29%
[11]
  Activity: 2.52%
[12]
  Activity: 49.24%
[13]
  fold change (FC): 3.78
[14]
  fold change (FC): 3.75
[15]
  fold change (FC): 3
[16]
  fold change (FC): 2.84
[17]
  fold change (FC): 2.65
[18]
  fold change (FC): 2.54
[19]
  fold change (FC): 2.34
[20]
  fold change (FC): 2.2
[21]
  fold change (FC): 2.07
[22]
  fold change (FC): 2.02
[23]
  fold change (FC): -2.01
[24]
  fold change (FC): -2.11
[25]
  fold change (FC): -2.21
[26]
  fold change (FC): -2.26
[27]
  fold change (FC): -2.32
[28]
  fold change (FC): -2.61
[29]
  fold change (FC): -2.61
[30]
  fold change (FC): -2.62
[31]
  fold change (FC): -2.68
